Test results published in patent publication US20230340137A1, “METHODS, THERAPIES AND USES FOR TREATING CANCER” (PFIZER INC., priority 2020, published 2023).

Experiments:
[1] = test system: Raji-luc lymphoma cells; test: BCMAxCD3 mediated cell killing with human T cells, with or without GSI (luciferase viability); type: cell-based; conditions: with or without 1 μM GSI, 60 hours
Procedure: CD3^+ T cells from PBMCs (Stem Cell Technologies) were negatively selected using EasySep Human T cell enrichment kit (Stem Cell Technologies). 10,000 target lymphoma cells expressing luciferase (Raji-luc) were treated with 1 μM GSI. After 24 hours, cells were seeded with 50,000 CD3^+ pan T cells in a clear 96-well V-bottom plate. Cells were further treated with a range of BCMAxCD3 bispecific concentrations with or without 1 μM GSI. 60 hours after treatment, luciferase activity in treated cells was analyzed using NeoLite reagent kit (Perkin Elmer) and acquired on VictorX multimode plate reader (Perkin Elmer). Cell viability was calculated by dividing luciferase activity of treated cells over luciferase activity of untreated control (no BCMAxCD3 bispecific antibody added).

[2] = test system: MM.1S-PD-L1 multiple myeloma cells; test: Subcutaneous MM.1S-PD-L1 multiple myeloma mouse model, tumor volume; type: in vivo
Procedure: MM.1S multiple myeloma cells were engineered to express PD-L1 and are referred to as MM.1S-PD-L1. Pre-activated and expanded T cells (20×10^6) were administered on Day 19 after MM.1S-PDL1 tumor cell inoculation subcutaneously (SC). BCMAxCD3 bispecific (0.3 or 1 mg/kg) or negative bispecific (1 mg/kg) was administered IV on Day 21 and dosed Q7Dx3. Anti-PD-1 mAb was administered at 5 mg/kg intraperitoneally (IP) twice a week starting on Day 21. Tumor measurements were recorded 2 to 3 times a week using digital calipers. N (at study start) is 5-12 animals per group.

Substance: PF-06863135: heterodimeric humanized full-length bispecific antibody, one BCMA binding arm and one CD3 binding arm, modified human IgG2Δa Fc
- Raji Cell Viability ([1]; BCMA × CD3 0.00064 nM): 94 ± 3.7 % control
- Raji Cell Viability ([1]; BCMA × CD3 0.0032 nM): 107 ± 4.5 % control
- Raji Cell Viability ([1]; BCMA × CD3 0.016 nM): 105.8 ± 10.2 % control
- Raji Cell Viability ([1]; BCMA × CD3 0.08 nM): 89.3 ± 5.7 % control
- Raji Cell Viability ([1]; BCMA × CD3 0.4 nM): 88.1 ± 18.4 % control
- Raji Cell Viability ([1]; BCMA × CD3 2 nM): 71 ± 9.7 % control
- Raji Cell Viability ([1]; BCMA × CD3 10 nM): 82.1 ± 9.7 % control
- Raji Cell Viability ([1]; BCMA × CD3 50 nM): 80 ± 13.2 % control
- Tumor Volume ± SEM ([2]; day 14 post inoculation (before dosing), bispecific 0.3 mg/kg IV Q7Dx3 from Day 21, anti-PD-1 5 mg/kg IP twice a week): 34.4 ± 9.5 mm^3
- Tumor Volume ± SEM ([2]; day 14 post inoculation (before dosing), bispecific 1 mg/kg IV Q7Dx3 from Day 21, anti-PD-1 5 mg/kg IP twice a week): 26.4 ± 7.5 mm^3
- Tumor Volume ± SEM ([2]; day 18 post inoculation (before dosing), bispecific 0.3 mg/kg IV Q7Dx3 from Day 21, anti-PD-1 5 mg/kg IP twice a week): 91.6 ± 18 mm^3
- Tumor Volume ± SEM ([2]; day 18 post inoculation (before dosing), bispecific 1 mg/kg IV Q7Dx3 from Day 21, anti-PD-1 5 mg/kg IP twice a week): 92 ± 17.1 mm^3
- Tumor Volume ± SEM ([2]; day 20 post inoculation (before dosing), bispecific 0.3 mg/kg IV Q7Dx3 from Day 21, anti-PD-1 5 mg/kg IP twice a week): 122.5 ± 20.7 mm^3
- Tumor Volume ± SEM ([2]; day 20 post inoculation (before dosing), bispecific 1 mg/kg IV Q7Dx3 from Day 21, anti-PD-1 5 mg/kg IP twice a week): 130.7 ± 24.6 mm^3
- Tumor Volume ± SEM ([2]; day 25 post inoculation, bispecific 0.3 mg/kg IV Q7Dx3 from Day 21, anti-PD-1 5 mg/kg IP twice a week): 403 ± 59 mm^3
- Tumor Volume ± SEM ([2]; day 25 post inoculation, bispecific 1 mg/kg IV Q7Dx3 from Day 21, anti-PD-1 5 mg/kg IP twice a week): 601.1 ± 70 mm^3
- Tumor Volume ± SEM ([2]; day 28 post inoculation, bispecific 0.3 mg/kg IV Q7Dx3 from Day 21, anti-PD-1 5 mg/kg IP twice a week): 403.3 ± 67.6 mm^3
- Tumor Volume ± SEM ([2]; day 28 post inoculation, bispecific 1 mg/kg IV Q7Dx3 from Day 21, anti-PD-1 5 mg/kg IP twice a week): 482.9 ± 32.6 mm^3
- Tumor Volume ± SEM ([2]; day 32 post inoculation, bispecific 0.3 mg/kg IV Q7Dx3 from Day 21, anti-PD-1 5 mg/kg IP twice a week): 603.6 ± 151.6 mm^3
- Tumor Volume ± SEM ([2]; day 32 post inoculation, bispecific 1 mg/kg IV Q7Dx3 from Day 21, anti-PD-1 5 mg/kg IP twice a week): 410.5 ± 82.7 mm^3
- Tumor Volume ± SEM ([2]; day 35 post inoculation, bispecific 0.3 mg/kg IV Q7Dx3 from Day 21, anti-PD-1 5 mg/kg IP twice a week): 835.1 ± 77.2 mm^3
- Tumor Volume ± SEM ([2]; day 35 post inoculation, bispecific 1 mg/kg IV Q7Dx3 from Day 21, anti-PD-1 5 mg/kg IP twice a week): 627.9 ± 111.8 mm^3
- Tumor Volume ± SEM ([2]; day 39 post inoculation, bispecific 0.3 mg/kg IV Q7Dx3 from Day 21, anti-PD-1 5 mg/kg IP twice a week): 1569.3 ± 151.8 mm^3
- Tumor Volume ± SEM ([2]; day 39 post inoculation, bispecific 1 mg/kg IV Q7Dx3 from Day 21, anti-PD-1 5 mg/kg IP twice a week): 1436.8 ± 276.4 mm^3
